Key:
Assay in all cases: KINOMEscan
Assay type in all cases: binding
Details in all cases: read-out: Remaining enzyme activity
[1] = target: T1, RPS6KA5(Kin.Dom.1-N-term) (Homo sapiens, UniProt O75582)
T1 construct: RPS6KA5(Kin.Dom.1-N-term); purchased Ambit (DiscoverX) KINOMEscan; Cerep
Summary of the method: (§1)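 Read-out: qPCR quantitation of DNA-tagged kinase eluted from affinity beads after competition with SC81458 (10 μM final). Kinases were expressed either as T7 phage fusions in E. coli or in HEK-293 cells.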

[2] = target: T2, YSK4 (Homo sapiens, UniProt Q56UN5)
T2 construct: purchased Ambit (DiscoverX) KINOMEscan; Cerep
T2 sequence (Q56UN5 whole entry): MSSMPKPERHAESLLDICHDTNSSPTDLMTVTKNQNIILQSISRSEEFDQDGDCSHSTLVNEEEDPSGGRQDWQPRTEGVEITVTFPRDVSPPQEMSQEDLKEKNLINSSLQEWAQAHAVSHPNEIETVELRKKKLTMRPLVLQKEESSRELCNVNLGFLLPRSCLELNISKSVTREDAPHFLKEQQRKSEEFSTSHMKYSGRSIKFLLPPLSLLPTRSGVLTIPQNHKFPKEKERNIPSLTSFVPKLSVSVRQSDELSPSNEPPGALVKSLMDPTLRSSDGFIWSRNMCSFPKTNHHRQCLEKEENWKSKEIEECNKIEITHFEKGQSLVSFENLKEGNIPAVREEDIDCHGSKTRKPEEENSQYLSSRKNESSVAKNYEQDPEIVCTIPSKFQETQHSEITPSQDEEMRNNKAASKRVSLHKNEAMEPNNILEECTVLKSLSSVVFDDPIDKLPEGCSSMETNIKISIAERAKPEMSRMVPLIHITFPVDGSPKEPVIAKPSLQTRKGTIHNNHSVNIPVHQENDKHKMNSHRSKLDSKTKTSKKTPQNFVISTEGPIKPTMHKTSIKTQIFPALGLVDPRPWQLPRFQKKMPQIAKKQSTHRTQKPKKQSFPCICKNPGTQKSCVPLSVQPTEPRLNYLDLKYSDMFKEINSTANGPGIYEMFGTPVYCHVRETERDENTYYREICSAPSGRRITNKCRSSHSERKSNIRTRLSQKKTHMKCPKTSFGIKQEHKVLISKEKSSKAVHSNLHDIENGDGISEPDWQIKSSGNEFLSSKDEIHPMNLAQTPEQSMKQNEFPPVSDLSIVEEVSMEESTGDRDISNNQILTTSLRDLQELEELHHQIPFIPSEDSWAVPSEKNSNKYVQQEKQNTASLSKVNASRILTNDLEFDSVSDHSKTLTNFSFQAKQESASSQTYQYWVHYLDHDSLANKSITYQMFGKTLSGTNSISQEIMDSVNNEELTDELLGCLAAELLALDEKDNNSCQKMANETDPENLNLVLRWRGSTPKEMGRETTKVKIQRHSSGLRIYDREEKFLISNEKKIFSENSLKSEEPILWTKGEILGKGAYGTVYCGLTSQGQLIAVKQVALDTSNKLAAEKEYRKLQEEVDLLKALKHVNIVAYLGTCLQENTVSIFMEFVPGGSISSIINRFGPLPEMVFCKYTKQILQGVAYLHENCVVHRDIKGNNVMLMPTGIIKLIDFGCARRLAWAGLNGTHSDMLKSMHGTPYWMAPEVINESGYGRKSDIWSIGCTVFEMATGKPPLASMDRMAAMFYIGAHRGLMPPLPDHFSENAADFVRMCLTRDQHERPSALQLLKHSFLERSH
Summary of the method: as §1

[3] = target: T3, CDK2 (Homo sapiens, UniProt P24941)
T3 construct: purchased Ambit (DiscoverX) KINOMEscan; Cerep
Summary of the method: as §1

[4] = target: T4, BRSK1 (Homo sapiens, UniProt Q8TDC3)
T4 construct: purchased Ambit (DiscoverX) KINOMEscan; Cerep
Summary of the method: as §1

[5] = target: T5, SRPK1 (Homo sapiens, UniProt Q96SB4)
T5 construct: purchased Ambit (DiscoverX) KINOMEscan; Cerep
T5 sequence (Q96SB4 whole entry): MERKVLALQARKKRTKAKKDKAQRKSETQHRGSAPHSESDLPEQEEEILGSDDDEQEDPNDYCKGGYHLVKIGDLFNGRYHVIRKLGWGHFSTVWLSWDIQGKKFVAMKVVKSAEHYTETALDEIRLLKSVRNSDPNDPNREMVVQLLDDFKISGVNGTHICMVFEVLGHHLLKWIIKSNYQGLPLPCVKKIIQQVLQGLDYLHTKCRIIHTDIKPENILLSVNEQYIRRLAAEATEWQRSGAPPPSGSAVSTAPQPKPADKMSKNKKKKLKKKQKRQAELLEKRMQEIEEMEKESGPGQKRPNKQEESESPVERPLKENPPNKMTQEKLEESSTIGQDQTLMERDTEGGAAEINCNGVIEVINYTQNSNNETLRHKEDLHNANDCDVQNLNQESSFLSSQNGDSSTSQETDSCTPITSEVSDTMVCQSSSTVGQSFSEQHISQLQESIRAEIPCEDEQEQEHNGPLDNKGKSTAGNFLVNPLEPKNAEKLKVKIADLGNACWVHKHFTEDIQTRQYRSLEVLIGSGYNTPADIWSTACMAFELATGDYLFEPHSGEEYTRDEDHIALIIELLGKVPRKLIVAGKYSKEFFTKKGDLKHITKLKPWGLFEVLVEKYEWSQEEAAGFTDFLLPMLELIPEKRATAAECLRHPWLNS
Summary of the method: as §1

[6] = target: T6, MLCK (Homo sapiens, UniProt Q32MK0)
T6 construct: purchased Ambit (DiscoverX) KINOMEscan; Cerep
T6 sequence (Q32MK0 whole entry): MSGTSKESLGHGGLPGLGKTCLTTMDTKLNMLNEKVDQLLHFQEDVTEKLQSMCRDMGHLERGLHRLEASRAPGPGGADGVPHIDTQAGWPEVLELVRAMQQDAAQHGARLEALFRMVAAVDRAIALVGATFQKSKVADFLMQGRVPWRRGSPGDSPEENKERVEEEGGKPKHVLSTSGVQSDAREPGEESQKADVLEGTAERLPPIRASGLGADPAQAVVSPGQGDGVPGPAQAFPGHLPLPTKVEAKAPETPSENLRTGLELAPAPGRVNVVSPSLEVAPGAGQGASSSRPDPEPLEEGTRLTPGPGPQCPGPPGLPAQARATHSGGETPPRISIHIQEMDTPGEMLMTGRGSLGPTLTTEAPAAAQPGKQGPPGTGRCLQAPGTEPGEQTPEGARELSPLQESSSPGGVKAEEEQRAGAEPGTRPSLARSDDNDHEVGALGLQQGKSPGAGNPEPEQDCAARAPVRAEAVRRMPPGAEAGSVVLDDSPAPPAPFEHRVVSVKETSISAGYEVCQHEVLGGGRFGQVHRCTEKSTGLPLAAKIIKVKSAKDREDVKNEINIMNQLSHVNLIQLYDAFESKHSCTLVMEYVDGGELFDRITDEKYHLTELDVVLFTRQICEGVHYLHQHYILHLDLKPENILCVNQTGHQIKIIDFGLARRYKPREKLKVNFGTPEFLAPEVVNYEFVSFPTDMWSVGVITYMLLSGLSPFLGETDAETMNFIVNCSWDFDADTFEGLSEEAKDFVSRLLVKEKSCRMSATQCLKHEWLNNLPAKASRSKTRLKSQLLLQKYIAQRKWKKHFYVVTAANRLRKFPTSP
Summary of the method: as §1

[7] = target: T7, DYRK1a (Homo sapiens, UniProt Q13627)
T7 construct: purchased Ambit (DiscoverX) KINOMEscan; Cerep
Summary of the method: as §1

[8] = target: T8, ROS1 (Homo sapiens, UniProt P08922)
T8 construct: purchased Ambit (DiscoverX) KINOMEscan; Cerep
Summary of the method: as §1

[9] = target: T9, EPHB4 (Homo sapiens, UniProt P54760)
T9 construct: purchased Ambit (DiscoverX) KINOMEscan; Cerep
Summary of the method: as §1

[10] = target: T10, SNARK (Homo sapiens, UniProt Q9H093)
T10 construct: purchased Ambit (DiscoverX) KINOMEscan; Cerep
Summary of the method: as §1

[11] = target: T11, MYO3a (Homo sapiens, UniProt Q8NEV4)
T11 construct: purchased Ambit (DiscoverX) KINOMEscan; Cerep
Summary of the method: as §1

[12] = target: T12, PIK3CA(C420R) (Homo sapiens, UniProt P42336, C420R)
T12 construct: purchased Ambit (DiscoverX) KINOMEscan; Cerep
Summary of the method: as §1

[13] = target: T13, STK35 (Homo sapiens, UniProt Q8TDR2)
T13 construct: purchased Ambit (DiscoverX) KINOMEscan; Cerep
Summary of the method: as §1

[14] = target: T14, PRKCD (Homo sapiens, UniProt Q05655)
T14 construct: purchased Ambit (DiscoverX) KINOMEscan; Cerep
Summary of the method: as §1

[15] = target: T15, ERBB2 (Homo sapiens, UniProt P04626)
T15 construct: purchased Ambit (DiscoverX) KINOMEscan; Cerep
Summary of the method: as §1

[16] = target: T16, CAMK2d (Homo sapiens, UniProt Q13557)
T16 construct: purchased Ambit (DiscoverX) KINOMEscan; Cerep
Summary of the method: as §1

[17] = target: T17, PDPK1 (Homo sapiens, UniProt O15530)
T17 construct: purchased Ambit (DiscoverX) KINOMEscan; Cerep
Summary of the method: as §1

[18] = target: T18, AKT1 (Homo sapiens, UniProt P31749)
T18 construct: purchased Ambit (DiscoverX) KINOMEscan; Cerep
T18 sequence (P31749 whole entry): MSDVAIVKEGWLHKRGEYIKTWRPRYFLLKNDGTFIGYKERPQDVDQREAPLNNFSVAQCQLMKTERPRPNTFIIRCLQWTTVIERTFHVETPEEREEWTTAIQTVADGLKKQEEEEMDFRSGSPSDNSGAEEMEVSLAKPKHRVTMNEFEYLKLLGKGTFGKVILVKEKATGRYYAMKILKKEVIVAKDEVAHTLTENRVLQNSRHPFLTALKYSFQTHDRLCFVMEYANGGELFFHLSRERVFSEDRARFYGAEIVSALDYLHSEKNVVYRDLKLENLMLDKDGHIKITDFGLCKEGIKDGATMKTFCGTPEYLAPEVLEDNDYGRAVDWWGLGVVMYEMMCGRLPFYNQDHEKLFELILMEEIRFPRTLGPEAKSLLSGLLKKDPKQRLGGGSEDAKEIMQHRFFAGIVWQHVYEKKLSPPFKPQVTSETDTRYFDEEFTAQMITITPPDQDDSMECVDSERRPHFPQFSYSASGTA
Summary of the method: as §1

[19] = target: T19, PRKG1 (Homo sapiens, UniProt Q13976)
T19 construct: purchased Ambit (DiscoverX) KINOMEscan; Cerep
Summary of the method: as §1

[20] = target: T20, p38-gamma (Homo sapiens, UniProt P53778)
T20 construct: purchased Ambit (DiscoverX) KINOMEscan; Cerep
Summary of the method: as §1

[21] = target: T21, STK36 (Homo sapiens, UniProt Q9NRP7)
T21 construct: purchased Ambit (DiscoverX) KINOMEscan; Cerep
Summary of the method: as §1

[22] = target: T22, LTK (Homo sapiens, UniProt P29376)
T22 construct: purchased Ambit (DiscoverX) KINOMEscan; Cerep
T22 sequence (P29376 17-864): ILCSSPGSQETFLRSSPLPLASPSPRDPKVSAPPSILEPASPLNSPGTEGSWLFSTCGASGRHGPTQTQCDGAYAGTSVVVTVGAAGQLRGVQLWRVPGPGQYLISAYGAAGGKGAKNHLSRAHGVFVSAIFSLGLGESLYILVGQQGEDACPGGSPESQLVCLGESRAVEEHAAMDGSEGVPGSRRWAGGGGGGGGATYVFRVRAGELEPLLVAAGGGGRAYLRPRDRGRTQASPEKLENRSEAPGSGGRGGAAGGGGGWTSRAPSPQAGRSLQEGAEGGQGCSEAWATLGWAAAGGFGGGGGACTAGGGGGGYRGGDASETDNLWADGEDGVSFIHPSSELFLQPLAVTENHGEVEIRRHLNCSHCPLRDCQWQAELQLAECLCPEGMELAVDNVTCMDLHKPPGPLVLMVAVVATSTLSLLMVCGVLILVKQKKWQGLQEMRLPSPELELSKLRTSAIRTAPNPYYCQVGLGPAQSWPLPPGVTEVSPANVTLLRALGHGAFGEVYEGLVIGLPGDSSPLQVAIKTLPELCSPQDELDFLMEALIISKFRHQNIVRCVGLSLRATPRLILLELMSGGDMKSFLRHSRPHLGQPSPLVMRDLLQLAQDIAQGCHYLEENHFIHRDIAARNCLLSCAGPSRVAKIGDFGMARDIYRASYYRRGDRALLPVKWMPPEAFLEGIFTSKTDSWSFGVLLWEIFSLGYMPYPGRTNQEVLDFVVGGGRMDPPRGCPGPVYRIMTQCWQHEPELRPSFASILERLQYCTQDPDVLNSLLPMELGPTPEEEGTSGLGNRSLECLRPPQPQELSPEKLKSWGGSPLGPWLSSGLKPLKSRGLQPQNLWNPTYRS
Summary of the method: as §1

[23] = target: T23, PHKG1 (Homo sapiens, UniProt Q16816)
T23 construct: purchased Ambit (DiscoverX) KINOMEscan; Cerep
Summary of the method: as §1

[24] = target: T24, PIM2 (Homo sapiens, UniProt Q9P1W9)
T24 construct: purchased Ambit (DiscoverX) KINOMEscan; Cerep
Summary of the method: as §1

[25] = target: T25, DDR1 (Homo sapiens, UniProt Q08345)
T25 construct: purchased Ambit (DiscoverX) KINOMEscan; Cerep
T25 sequence (Q08345 19-913): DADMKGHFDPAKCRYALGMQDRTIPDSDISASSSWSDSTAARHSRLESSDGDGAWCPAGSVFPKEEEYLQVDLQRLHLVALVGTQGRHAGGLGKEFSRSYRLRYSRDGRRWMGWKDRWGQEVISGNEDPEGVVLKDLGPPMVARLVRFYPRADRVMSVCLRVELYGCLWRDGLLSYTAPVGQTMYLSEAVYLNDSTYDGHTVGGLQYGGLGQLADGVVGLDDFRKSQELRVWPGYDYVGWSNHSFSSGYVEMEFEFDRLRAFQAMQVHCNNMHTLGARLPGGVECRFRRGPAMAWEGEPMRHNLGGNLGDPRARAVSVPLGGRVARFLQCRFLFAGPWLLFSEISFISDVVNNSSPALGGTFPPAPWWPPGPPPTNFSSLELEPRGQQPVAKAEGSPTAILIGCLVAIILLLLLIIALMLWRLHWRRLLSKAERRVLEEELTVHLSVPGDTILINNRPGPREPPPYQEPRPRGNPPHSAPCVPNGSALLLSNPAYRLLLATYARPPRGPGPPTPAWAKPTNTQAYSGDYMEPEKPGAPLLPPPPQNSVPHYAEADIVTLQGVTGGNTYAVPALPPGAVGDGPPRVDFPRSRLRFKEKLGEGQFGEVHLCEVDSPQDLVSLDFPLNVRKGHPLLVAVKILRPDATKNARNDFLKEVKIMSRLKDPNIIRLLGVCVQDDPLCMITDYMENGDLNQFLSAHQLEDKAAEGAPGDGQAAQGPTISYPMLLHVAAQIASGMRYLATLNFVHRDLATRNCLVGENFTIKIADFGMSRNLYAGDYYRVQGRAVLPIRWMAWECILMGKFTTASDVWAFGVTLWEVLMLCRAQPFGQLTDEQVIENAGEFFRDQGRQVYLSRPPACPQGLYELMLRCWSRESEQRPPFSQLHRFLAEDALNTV
Summary of the method: as §1

[26] = target: T26, SIK (Homo sapiens, UniProt P57059)
T26 construct: purchased Ambit (DiscoverX) KINOMEscan; Cerep
Summary of the method: as §1

[27] = target: T27, MEK6 (Homo sapiens, UniProt P52564)
T27 construct: purchased Ambit (DiscoverX) KINOMEscan; Cerep
Summary of the method: as §1

[28] = target: T28, CHEK2 (Homo sapiens, UniProt O96017)
T28 construct: purchased Ambit (DiscoverX) KINOMEscan; Cerep
Summary of the method: as §1

[29] = target: T29, MINK (Homo sapiens, UniProt Q8N4C8)
T29 construct: purchased Ambit (DiscoverX) KINOMEscan; Cerep
Summary of the method: as §1

[30] = target: T30, NDR1 (Homo sapiens, UniProt Q15208)
T30 construct: purchased Ambit (DiscoverX) KINOMEscan; Cerep
Summary of the method: as §1

[31] = target: T31, EGFR(G719C) (Homo sapiens, UniProt P00533, G719C)
T31 construct: purchased Ambit (DiscoverX) KINOMEscan; Cerep
Summary of the method: as §1

[32] = target: T32, MEK1 (Homo sapiens, UniProt Q02750)
T32 construct: purchased Ambit (DiscoverX) KINOMEscan; Cerep
Summary of the method: as §1

[33] = target: T33, PIK3CA (Homo sapiens, UniProt P42336)
T33 construct: purchased Ambit (DiscoverX) KINOMEscan; Cerep
Summary of the method: as §1

[34] = target: T34, HIPK3 (Homo sapiens, UniProt Q9H422)
T34 construct: purchased Ambit (DiscoverX) KINOMEscan; Cerep
Summary of the method: as §1

CCCCN1CCN(C(=N)c2cccc(NC(=O)Nc3ccc(S(=O)(=O)NCc4ccc(S(N)(=O)=O)cc4)cc3)c2)CC1 [SC81458, 4-(3-(3-((4-butylpiperazin-1-yl)(imino)methyl)phenyl)ureido)-N-(4-sulfamoylbenzyl) benzenesulfonamide]
remaining binding at 10 µM [1]: 96%
remaining binding at 10 µM [2]: 100%
remaining binding at 10 µM [3]: 100%
remaining binding at 10 µM [4]: 69%
remaining binding at 10 µM [5]: 100%
remaining binding at 10 µM [6]: 100%
remaining binding at 10 µM [7]: 100%
remaining binding at 10 µM [8]: 100%
remaining binding at 10 µM [9]: 100%
remaining binding at 10 µM [10]: 100%
remaining binding at 10 µM [11]: 100%
remaining binding at 10 µM [12]: 100%
remaining binding at 10 µM [13]: 87%
remaining binding at 10 µM [14]: 100%
remaining binding at 10 µM [15]: 100%
remaining binding at 10 µM [16]: 90%
remaining binding at 10 µM [17]: 74%
remaining binding at 10 µM [18]: 87%
remaining binding at 10 µM [19]: 86%
remaining binding at 10 µM [20]: 85%
remaining binding at 10 µM [21]: 100%
remaining binding at 10 µM [22]: 100%
remaining binding at 10 µM [23]: 80%
remaining binding at 10 µM [24]: 87%
remaining binding at 10 µM [25]: 91%
remaining binding at 10 µM [26]: 97%
remaining binding at 10 µM [27]: 81%
remaining binding at 10 µM [28]: 100%
remaining binding at 10 µM [29]: 95%
remaining binding at 10 µM [30]: 100%
remaining binding at 10 µM [31]: 80%
remaining binding at 10 µM [32]: 100%
remaining binding at 10 µM [33]: 83%
remaining binding at 10 µM [34]: 99%

Reference: PMC5290327, “SC83288 is a clinical development candidate for the treatment of severe malaria” (Nature Communications, 2017)
